# Data as given in US9884063B2, “Amido-substituted azole compounds” (Bayer Pharma Aktiengesellschaft, priority 2014, dated 2018).
# What was measured:
# TNKS1 = biological target: T1, TNKS1 (Homo sapiens, UniProt O95271); experiment: Modified TNKS1 Assay 3 (BPS kit #80573, biotin-NAD+, 96 well); type: biochemical; conditions: human TNKS1, BPS kit #80573, 96 well
# T1 sequence (O95271 1-1327): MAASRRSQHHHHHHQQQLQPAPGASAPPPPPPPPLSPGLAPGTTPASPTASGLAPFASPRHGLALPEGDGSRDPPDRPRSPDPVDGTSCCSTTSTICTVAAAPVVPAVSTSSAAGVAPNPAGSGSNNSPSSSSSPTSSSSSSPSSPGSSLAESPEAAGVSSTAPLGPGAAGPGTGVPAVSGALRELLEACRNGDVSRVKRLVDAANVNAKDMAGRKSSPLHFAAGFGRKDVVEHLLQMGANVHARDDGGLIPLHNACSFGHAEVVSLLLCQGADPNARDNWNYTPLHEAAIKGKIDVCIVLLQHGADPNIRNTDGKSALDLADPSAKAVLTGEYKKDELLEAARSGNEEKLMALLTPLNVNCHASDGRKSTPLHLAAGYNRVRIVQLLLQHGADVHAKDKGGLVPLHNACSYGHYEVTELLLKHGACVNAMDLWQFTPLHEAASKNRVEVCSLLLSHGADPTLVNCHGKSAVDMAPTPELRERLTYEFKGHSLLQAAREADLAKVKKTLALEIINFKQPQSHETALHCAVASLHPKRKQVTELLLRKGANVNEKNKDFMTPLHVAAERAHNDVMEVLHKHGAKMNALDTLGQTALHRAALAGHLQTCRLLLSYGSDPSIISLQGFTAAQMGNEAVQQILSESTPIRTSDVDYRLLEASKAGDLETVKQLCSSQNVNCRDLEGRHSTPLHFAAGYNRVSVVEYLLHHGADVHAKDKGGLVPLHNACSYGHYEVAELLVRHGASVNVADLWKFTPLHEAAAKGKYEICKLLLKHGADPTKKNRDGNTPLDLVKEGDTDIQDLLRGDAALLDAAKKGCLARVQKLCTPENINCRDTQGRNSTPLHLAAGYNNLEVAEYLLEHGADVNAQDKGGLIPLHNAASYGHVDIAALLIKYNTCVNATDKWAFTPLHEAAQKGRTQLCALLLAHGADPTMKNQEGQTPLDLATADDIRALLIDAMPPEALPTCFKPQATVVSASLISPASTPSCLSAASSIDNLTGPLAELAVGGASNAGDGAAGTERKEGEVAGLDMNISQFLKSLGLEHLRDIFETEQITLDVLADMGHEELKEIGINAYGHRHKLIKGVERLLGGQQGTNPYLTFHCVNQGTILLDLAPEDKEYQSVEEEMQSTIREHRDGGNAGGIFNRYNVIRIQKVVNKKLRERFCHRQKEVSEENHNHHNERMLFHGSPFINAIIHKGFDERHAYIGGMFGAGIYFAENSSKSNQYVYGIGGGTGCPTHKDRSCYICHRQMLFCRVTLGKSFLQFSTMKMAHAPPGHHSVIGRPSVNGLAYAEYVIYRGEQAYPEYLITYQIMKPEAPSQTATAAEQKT
# How it was run: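 Chemiluminescent assay of TNKS1-catalysed ribosylation of a protein substrate with biotin-labelled NAD+, detected via streptavidin-HRP; run per kit protocol. Inhibition lowers the signal, and IC50 is the compound concentration halving the normalised readout.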
# [1] = test system: HEK293 FOP control reporter cell line; experiment: HEK293 FOP Assay (FOP control vector luciferase reporter); type: cell-based; conditions: Homo sapiens
# How it was run: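 Compound series 50 μM to 15 nM, 3.16-fold steps, were diluted in CAFTY buffer (pH 7.4, 2 mM Ca2+, 0.01% BSA) and tested alongside the TOP reporter line. Human Wnt-3a was added at 2500–5 ng/ml in two-fold steps. The control HEK293 line stably holds an FOP vector whose TCF elements are randomized and non-functional.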
# [2] = HEK293 FOP control reporter cell line, 16 hours incubation, compound dilution series 50 μM to 15 nM
# [3] = HEK293 FOP control reporter cells, 16 hours, luciferase, dilution series from 50 μM
IC50 (TNKS1),SMILES,"IC50 [1, 2]","IC50 [1, 3]"
130 nM,"CN(C)CCNC(=O)c1ncoc1C(=O)Nc1ccc(NC(=O)c2ccc(F)cc2Cl)cc1 [Example 31, N^5-{4-[(2-chloro-4-fluorobenzoyl)amino]phenyl}-N^4-[2-(dimethylamino)ethyl]-1,3-oxazole-4,5-dicarboxamide]",–,≥ 50 µM
> 500 nM,"O=C(Nc1ccc(NC(=O)c2[nH]cnc2C(=O)NCCN2CCCCC2)cc1)c1ccc(F)cc1 [Example 33, N^4-{4-[(4-fluorobenzoyl)amino]phenyl}-N^5-[2-(piperidin-1-yl)ethyl]-1H-imidazole-4,5-dicarboxamide]",–,≥ 50 µM
330 nM,"CNC(=O)c1nc[nH]c1C(=O)Nc1ccc(NC(=O)c2ccccc2Br)cc1 [Example 37, N^5-{4-[(2-bromobenzoyl)amino]phenyl}-N^4-methyl-1H-imidazole-4,5-dicarboxamide]",20 µM,20 µM
70 nM,"O=C(Nc1ccc(NC(=O)c2[nH]cnc2C(=O)NC2CC2)cc1)c1ccc(F)cc1Cl [Example 45, N^5-{4-[(2-chloro-4-fluorobenzoyl)amino]phenyl}-N^4-cyclopropyl-1H-imidazole-4,5-dicarboxamide]",40 µM,–
> 500 nM,"O=C(Nc1ccc(NC(=O)c2[nH]cnc2C(=O)NCCC2CC2)cc1)c1cc(F)c(F)cc1Cl [Example 49, N^5-{4-[(2-chloro-4,5-difluorobenzoyl)amino]phenyl}-N^4-(2-cyclopropylethyl)-1H-imidazole-4,5-dicarboxamide]",17 µM,–
70 nM,"O=C(Nc1ccc(NC(=O)c2[nH]cnc2C(=O)NCCN2CCCCC2)cc1)c1cc(OC(F)(F)F)ccc1Br [Example 63, N^5-(4-{[2-bromo-5-(trifluoromethoxy)benzoyl]amino}phenyl)-N^4-[2-(piperidin-1-yl)ethyl]-1H-imidazole-4,5-dicarboxamide]",11 µM,–
40 nM,"COc1cc(NC(=O)c2[nH]cnc2C(=O)NCCN2CCCCC2)ccc1NC(=O)c1ccccc1Cl [Example 101, N^5-{4-[(2-chlorobenzoyl)amino]-3-methoxyphenyl}-N^4-[2-(piperidin-1-yl)ethyl]-1H-imidazole-4,5-dicarboxamide]",29 µM,–
20 nM,"CC1CCCN(CCNC(=O)c2[nH]cnc2C(=O)Nc2ccc(NC(=O)c3ccccc3Cl)cc2)C1 (centres unmarked) [Example 210, N^4-{4-[(2-chlorobenzoyl)amino]phenyl}-N^5-[2-(3-methylpiperidin-1-yl)ethyl]-1H-imidazole-4,5-dicarboxamide]",24 µM,–
> 500 nM,"O=C(Nc1ccc(NC(=O)c2nc[nH]c2C(=O)NCC2CCCO2)cc1)c1ccc(F)cc1Cl (centres unmarked) [Example 237, N^4-{4-[(2-chloro-4-fluorobenzoyl)amino]phenyl}-N^5-(tetrahydrofuran-2-ylmethyl)-1H-imidazole-4,5-dicarboxamide]",–,–
60 nM,"CC(C)(N)CNC(=O)c1[nH]cnc1C(=O)Nc1ccc(NC(=O)c2ccc(F)cc2Cl)cc1 [Example 280, N^5-(2-amino-2-methylpropyl)-N^4-{4-[(2-chloro-4-fluorobenzoyl)amino]phenyl}-1H-imidazole-4,5-dicarboxamide]",–,–
30 nM,"CC(C)NCCNC(=O)c1[nH]cnc1C(=O)Nc1ccc(NC(=O)c2ccc(F)cc2Cl)cc1 [Example 288, N^4-{4-[(2-chloro-4-fluorobenzoyl)amino]phenyl}-N^5-[2-(isopropylamino)ethyl]-1H-imidazole-4,5-dicarboxamide]",–,–
260 nM,"CNC(=O)c1nc[nH]c1C(=O)Nc1ccc(NC(=O)c2ccc(C#N)cc2F)cc1 [Example 369, N^5-{4-[(4-cyano-2-fluorobenzoyl)amino]phenyl}-N^4-methyl-1H-imidazole-4,5-dicarboxamide]",–,–
10 nM,"CN1CCC(CNC(=O)c2nc[nH]c2C(=O)Nc2ccc(NC(=O)c3ccc(F)cc3Cl)cc2)C1 (centres unmarked) [Example 407, N^5-{4-[(2-chloro-4-fluorobenzoyl)amino]phenyl}-N^4-[(1-methylpyrrolidin-3-yl)methyl]-1H-imidazole-4,5-dicarboxamide]",–,–

# Continued, compound first:
SMILES,IC50 (TNKS1),"IC50 [1, 2]","IC50 [1, 3]"
"COC(=O)c1nc[nH]c1C(=O)Nc1ccc(NC(=O)c2ccc(F)cc2Cl)cc1 [Example 13, Methyl 5-({4-[(2-chloro-4-fluorobenzoyl)amino]phenyl}carbamoyl)-1H-imidazole-4-carboxylate]",60 nM,25 µM,25 µM
"CNC(=O)c1nc[nH]c1C(=O)Nc1ccc(NC(=O)c2c(C)cc(C)cc2C)cc1 [Example 35, N^5-{4-[(mesitylcarbonyl)amino]phenyl}-N^4-methyl-1H-imidazole-4,5-dicarboxamide]",> 500 nM,–,≥ 50 µM
"CNC(=O)c1[nH]c(C)nc1C(=O)Nc1ccc(NC(=O)c2ccc(F)cc2Cl)cc1 [Example 65, N^4-{4-[(2-chloro-4-fluorobenzoyl)amino]phenyl}-N^5,2-dimethyl-1H-imidazole-4,5-dicarboxamide]",160 nM,9.5 µM,–
"O=C(Nc1ccc(NC(=O)c2[nH]cnc2C(=O)NCCN2CCCCC2)cc1F)c1ccc(F)cc1Cl [Example 74, N^5-{4-[(2-chloro-4-fluorobenzoyl)amino]-3-fluorophenyl}-N^4-[2-(piperidin-1-yl)ethyl]-1H-imidazole-4,5-dicarboxamide]",2 nM,14 µM,–
"O=C(Nc1ccc(NC(=O)c2[nH]cnc2C(=O)NCCN2CCCCC2)cc1F)c1ccccc1Cl [Example 82, N^5-{4-[(2-chlorobenzoyl)amino]-3-fluorophenyl}-N^4-[2-(piperidin-1-yl)ethyl]-1H-imidazole-4,5-dicarboxamide]",10 nM,44 µM,–
"COc1cc(NC(=O)c2[nH]cnc2C(=O)NCCN2CCCCC2)ccc1NC(=O)c1ccc(F)cc1Cl [Example 97, N^5-{4-[(2-chloro-4-fluorobenzoyl)amino]-3-methoxyphenyl}-N^4-[2-(piperidin-1-yl)ethyl]-1H-imidazole-4,5-dicarboxamide]",90 nM,29 µM,–
"CC(C)[C@@H](C)NC(=O)c1[nH]cnc1C(=O)Nc1ccc(NC(=O)c2ccc(F)cc2Cl)cc1 [Example 134, N^4-{4-[(2-chloro-4-fluorobenzoyl)amino]phenyl}-N^5-[(2R)-3-methylbutan-2-yl]-1H-imidazole-4,5-dicarboxamide]",360 nM,6.3 µM,–
"CNC(=O)c1nc[nH]c1C(=O)Nc1ccc(NC(=O)c2ccc(OC)cc2Cl)cc1 [Example 246, N^5-{4-[(2-chloro-4-methoxybenzoyl)amino]phenyl}-N^4-methyl-1H-imidazole-4,5-dicarboxamide]",> 500 nM,–,–
"O=C(Nc1ccc(NC(=O)c2nc[nH]c2C(=O)NCCN2CCC[C@H](O)C2)cc1)c1ccc(F)cc1Cl [Example 271, N^4-{4-[(2-chloro-4-fluorobenzoyl)amino]phenyl}-N^5-{2-[(3S)-3-hydroxypiperidin-1-yl]ethyl}-1H-imidazole-4,5-dicarboxamide]",6 nM,–,–
"CC(C)(N)CCNC(=O)c1[nH]cnc1C(=O)Nc1ccc(NC(=O)c2ccc(F)cc2Cl)cc1 [Example 286, N^5-(3-amino-3-methylbutyl)-N^4-{4-[(2-chloro-4-fluorobenzoyl)amino]phenyl}-1H-imidazole-4,5-dicarboxamide]",70 nM,–,–
"CNCCNC(=O)c1[nH]cnc1C(=O)Nc1ccc(NC(=O)c2ccc(F)cc2Cl)cc1 [Example 287, N^4-{4-[(2-chloro-4-fluorobenzoyl)amino]phenyl}-N^5-[2-(methylamino)ethyl]-1H-imidazole-4,5-dicarboxamide]",80 nM,–,–
